Test results reported in patent US10738024B2, “Compounds for treatment of angiogenesis-mediated diseases” (Indiana University Research and Technology Corporation, priority 2013, dated 2020).
“Also recorded” adds a separate entry of the source. Where two headings read alike, the source gives them in different places.

Key:
HUVECs = test: ALAMARBLUE proliferation assay in HUVECs; type: cell-based, human; settings: for GI50: 50% growth inhibitory concentration, alamarBlue
Method: (§1) Particularly, in a 96-well clear bottom black plate, cells (2,500 cells per well) were seeded in a total volume of 100 μL EGM-2. After 24 hours of incubation of the plate at 37° C. and 5% CO2, a DMSO solution of synthetic cremastranone (1) or SH-11052 (2) was added in the concentration range of 0.5 nM to 500 μM (final DMSO concentration=1%). The plate was then further incubated for 48 hours before adding 11.1 μL of ALAMARBLUE® reagent to each well. Four hours after the addition of ALAMARBLUE®, fluorescence readings with excitation and emission wavelengths of 560 nm and 590 nm, respectively, were taken and the data were analyzed in GraphPad Prism software (v. 6.0). Dose response curves were generated and the GI50 values were calculated using the following equation: Y=100/(1+10^(X−Log GI50)).
(§2) For proliferation assays, cells (2500 per well) were seeded in a 96-well clear bottom black polystyrene plate in a total volume of 100 μL. HUVECs and HRECs were grown in EGM-2 and CSC+ media respectively, while 92-1 and Y79 cells were maintained in RPMI+10% FBS, penicillin/streptomycin and RB medium (IMDM+10% FBS+penicillin/streptomycin+10 μg/mL insulin+55 μM β-mercaptoethanol) respectively. After 24 hours of incubation of the plate at 37° C., the compounds were dissolved in DMSO and added in the concentration range of 500 μM to 0.5 nM. The plate was then incubated at 37° C. and 5% CO2 conditions for 48 hours before adding 11.1 μL of alamar blue reagent for each well. Four hours after the addition of ALAMARBLUE® reagent, fluorescence readings with excitation and emission wavelengths of 560 nm and 590 nm respectively were taken and the data was analyzed in GraphPad Prism software. The dose response curves were generated and the GI50 values were calculated using the equation: Y=100/(1+10^(X−Log GI50)) (Table 1).

HRECs [1] = test: ALAMARBLUE proliferation assay in HRECs; type: cell-based, human; settings: for GI50: Homo sapiens, HREC; for in vitro anti-proliferative activity in HRECs: result in words, FIGS. 6B, 6D, 14
Method: as §1, §2

[2] = tested on: Y-79 retinoblastoma cells; test: ALAMARBLUE proliferation assay in Y-79 retinoblastoma cells; type: cell-based; settings: 50% growth inhibitory concentration, 48 hours
Method: as §2

[3] = tested on: 92-1 uveal melanoma cells; test: ALAMARBLUE proliferation assay in 92-1 uveal melanoma cells; type: cell-based; settings: for GI50: 50% growth inhibitory concentration, 48 hours, alamarBlue
Method: as §2

HRECs [4] = test: Apoptosis of HRECs by cleaved caspase-3 staining; type: cell-based, human
Method: Further, cells (25,000 per coverslip) were seeded onto coverslips coated with Attachment Factor (Cell Systems, Kirkland, Wash., USA) and incubated at 37° C. and 5% CO2 in EGM-2 until ˜80% confluence was achieved. The cells were then incubated for 4 hours with the indicated concentrations of SH-11052 (2). Staurosporine (SP; 1 μM) was used as a positive control. After the incubation, the cells were fixed in 4% paraformaldehyde for 20 minutes at room temperature followed by three quick washes in Tris buffered saline pH 7.4 (TBS). The cells were permeabilized by incubating with 0.5% Triton X-100 for 10 minutes and then blocked in 10% block solution (DAKO, Glostrup, Denmark) in TBS plus 1% bovine serum albumin (BSA) for 1 hour. The cells were then incubated with cleaved caspase-3 (D175) antibody (1:200 dilution) overnight at 4° C. Dylight 555 conjugated goat anti-rabbit secondary antibody (1:400) was used to probe the cleaved caspase-3 antibody. The coverslips were mounted using Vectashield mounting medium containing DAPI (Vector Labs, Burlingame, Calif., USA) for nuclear staining. The cells were imaged using an LSM 700 confocal microscope (Zeiss, Thornwood, N.Y., USA).

NF-κB p65 = test: TNF-α induced NF-κB p65 nuclear translocation in HRECs (immunofluorescence); type: cell-based, human; settings: 10 ng/ml TNF-α for 20 minutes
Method: Cells (25,000 per coverslip) were seeded onto coverslips coated with Attachment Factor (Cell Systems, Kirkland, Wash., USA) and incubated at 37° C. and 5% CO2 for 24 hours in EGM-2. The cells were starved in 0.1% serum-EBM-2 for 8 hours followed by 0.1% serum-EBM-2 medium for one hour in the presence of different concentrations of SH-11052 (2). The cells were induced with 10 ng/ml TNF-α, a known pro-inflammatory cytokine and inducer of NF-κB, for 20 minutes and fixed with 4% paraformaldehyde solution for 20 minutes at room temperature. Since NF-κB exerts its transcriptional activity in the nucleus, blockade of stimulus-induced nuclear translocation of NF-κB is an indication of NF-κB pathway inhibition.
Cells were quickly washed three times in TBS and permeabilized by incubating with 0.5% Triton X-100 for 10 minutes. The cells were blocked in 10% block solution (DAKO) in TBS plus 1% BSA followed by incubation with an antibody against NF-κB p65 (1:50 dilution). Dylight 488-conjugated goat anti-mouse secondary antibody (1:200 dilution) was used to probe the NF-κB p65 antibody. The coverslips were mounted using Vectashield mounting medium containing DAPI (Vector Labs) for nuclear staining. The cells were imaged using an LSM 700 confocal microscope (Zeiss). […]

[5] = 50% growth inhibitory concentration, 48 hours, alamarBlue, read-out: GI50 HREC

Row | SMILES | GI50 (HUVECs; Homo sapiens, HUVEC, 48 h) | in vitro anti-proliferative activity in HUVECs (HUVECs; result in words, FIGS. 6A, 6C) | GI50 (HRECs [1]; [5]) | in vitro anti-proliferative activity in HRECs (HRECs [1]) | GI50 [2] | GI50 [3] | apoptosis of HRECs (cleaved caspase-3 staining) (HRECs [4]; 100 μM, 4 hours) | nuclear translocation of NF-κB (p65) upon TNF-α stimulation / NF-κB signaling (NF-κB p65; listed as SH-11052 (2)) | GI50 (HUVECs; 48 hours, listed as 6c (SH-11037), read-out: GI50 HUVEC) | GI50 (HRECs [1]; text of Example 15, FIG. 14, read-out: HREC GI50) | toxicity to a uveal melanoma cell line ([3]; result in words) | apoptosis of HRECs (HRECs [4]; concentration not given, FIGS. 16A-16B, listed as SH-11037 (6c)) | nuclear translocation of NF-κB (p65) upon TNF-α stimulation / NF-κB signaling (NF-κB p65; listed as SH-11037 (6c))
1 | COc1ccc(CC2COc3cc(OC)c(O)c(O)c3C2=O)cc1O (single isomer, unassigned) [Compound 2] | 18 µM | demonstrated in vitro anti-proliferative activity | 43 µM | demonstrated in vitro anti-proliferative activity | 87 µM | 6 µM | negligible apoptosis | blocked NF-κB signaling; also recorded: inhibited |  |  |  |  | 
2 | COc1ccc(CC2COc3cc(OC)c(OC)c(OC)c3C2=O)cc1OC(=O)[C@H](Cc1ccccc1)NC(=O)OC(C)(C)C (stereo partly drawn) [Compound 6c, (2S)-2-methoxy-5-((5,6,7-trimethoxy-4-oxochroman-3-yl)methyl)phenyl 2-((tert-butoxycarbonyl)amino)-3-phenylpropanoate] | 1 µM |  | 0.087 µM | inhibition of proliferation | 12 µM | 400 µM |  |  | 0.746 µM | 0.15 µM | non-toxic | did not cause apoptosis; also recorded: did not promote apoptosis | did not inhibit NF-κB signaling
